This is an account of results in patent US20090227556A1, “RECEPTOR TYROSINE KINASE INHIBITORS COMPRISING PYRIDINE AND PYRIMIDINE DERIVATIVES” (Eisai R&D Management Co., Ltd., priority 2008, published 2009).

In test [1] the test system is human thyroid cancer cell line (TT). The conditions noted are these: subcutaneous TT model; cited from earlier work.
The target in test [2] is T1, VEGFR-2 tyrosine kinase (His6-VEGFR-2, cytoplasmic domain) (Homo sapiens, UniProt P35968).
T1 construct: made in house; host or cells: Sf9 insect cells (baculovirus, pFastBac-HT)
Kind of test: Inhibitory activity on VEGFR-2 tyrosine kinase (HTRF). The format is biochemical. The conditions noted are these: biotin-poly(GT) substrate. From the text:
Cytoplasmic domain of VEGFR-2 (Genbank Accession No. L04947) is a 1.7 kb DNA fragment starting from lysine 791 and contains a stop codon, as described by Tarman et al. (Oncogene, 6(9), 1677-1683, 1991). This DNA fragment was isolated from a human placental cDNA library (obtained from Clontech Laboratories, Inc.) with two primers (obtained from TaKaRa Ex Taq™ Kit, TaKaRa) using a PCR method. This DNA fragment was cloned into a baculovirus transplace vector (pFastBac™-HT (obtained from GIBCO BRL)), to obtain a recombinant construct. An insect cell (Spodoptera frugiperda 9 (Sf9)) was transfected with it, and a VEGFR-2 recombinant baculovirus solution was prepared (preparation of the recombinant baculovirus can be found in a standard textbook (Bac-to-Bac Baculovirus Expression System (GIBCO BRL)).
To Sf9 cells (3×10^8 cells) suspended in a SF-90011 culture medium containing 2% FBS (obtained from Invitrogen Corp.), the above mentioned recombinant VEGFR-2 baculovirus solution (4 ml) was added and incubated with shaking at 27° C. for 48 hours. The recombinant VEGFR-2 baculovirus-infected cell culture was centrifuged at 4° C. at 1000 rpm for 5 minutes, and the supernatant was removed. The precipitated infected cells were suspended in 80 ml of ice-cold PBS, the suspension was centrifuged at 4° C. at 1000 rpm for 5 minutes, and the supernatant was removed. The precipitated infected cells were suspended in 40 ml of ice-cold Lysis Buffer (50 mM Tris-HCl (pH 8.5), 5 mM 2-mercaptoethanol, 100 mM KCl, 1 mM PMSF, and 1% (v/v) NP-40). This suspension was centrifuged at 4° C. at 12,000 rpm for 30 min to obtain a supernatant.
This supernatant was added to a Ni-NTA agarose column (3 ml, obtained from Qiagen) which had been equilibrated with 30 ml of Buffer A (20 mM Tris-HCl (pH 8.5), 5 mM 2-mercaptoethanol, 500 mM KCl, 20 mM imidazole, and 10% (v/v) glycerol). This column was washed sequentially with 30 ml of Buffer A, 6 ml of Buffer B (20 mM Tris-HCl (pH 8.5), 5 mM 2-mercaptoethanol, 1M KCl, and 10% (v/v) glycerol), and 6 ml of Buffer A. Then, to this column, 6 ml of Buffer C (20 mM Tris-HCl (pH 8.5), 5 mM 2-mercaptoethanol, 100 mM KCl, 100 mM imidazole, and 10% (v/v) glycerol) was added to obtain an eluate. This eluate was poured into a dialysis membrane (obtained from Spectrum Laboratories) and dialyzed with 1 liter of dialysis buffer (20 mM Tris-HCl (pH 7.5), 10% (v/v) glycerol, 1 mM DTT, 0.1 mM Na3VO4, 0.1 mM EGTA) at 4° C. overnight and stored at −80° C. until use. After the dialysis, a part of the eluate was subjected to a SDS electrophoresis, and the recombinant protein (His 6-VEGFR-2, a cytoplasmic domain of VEGFR-2 fused with 6 histidine residues on its N-terminus) detected at about 100 kDa Mw in Coomassie Brilliant Blue staining was subjected to protein quantification using BSA (obtained from Sigma Co. Ltd.) as a standard.
In each well of a 96-well round bottom plate (obtained from NUNC, product number 163320), 10 μl of a solution for kinase reaction (200 mM Hepes (pH 7.4), 80 mM MgCl2, 16 mM MnCl2, 2 mM Na3VO4), 250 ng of biotin-conjugated poly (Glu 4: Tyr 1) (biotin-poly (GT) obtained from Nihon Schering K.K.) (6 μl of 1/15 diluted solution with distilled water), 15 ng of His6-VEGFR-2 (10 μl of a 1/240 diluted solution with a 0.4% BSA solution), and a test substance solution in dimethyl sulfoxide (4 μl of 1/100 dilution with 0.1% BSA) were added to make a total volume of 30 μl. To them, 10 μl of 4 μM ATP (obtained from Sigma Co. Ltd.) diluted with distilled water was added, and the resultant was incubated for 10 minutes at 30° C., followed by addition of 10 μl of 500 mM EDTA (pH 8.0) (obtained from Wako Pure Chemical Industries, Ltd.) to obtain a kinase reaction solution.
To detect tyrosine-phosphorylated biotin-poly (GT), the Homogenous Time-Resolved Fluorescence (HTRF) method was used (Analytical Biochemistry, 269, 94-104, 1999). […]

The next test addresses T2, KIT (Homo sapiens, UniProt P10721).
T2 construct: purchased Carna Biosciences Inc. 08-156
Kind of test: Inhibitory action on KIT (ELISA). Particulars: recombinant human kinase. The class given is biochemical. The procedure:
A test compound was dissolved in dimethyl sulfoxide to make a 10 mM solution, which was stored in a dark place at 4° C. until use.
Protein tyrosine kinases (recombinant human kinases) used in the study were the following products from Carna Biosciences Inc. (Kobe, Japan).
VEGFR-1 (FLT 1) (product number: 08-189) VEGFR-3 (FLT 4) (product number: 08-190) RON (product number: 08-152) RET (product number: 08-159) KIT (product number: 08-156)
Kinase activity was measured in a mobility shift assay (MSA) method (J. Biomolecular Screening, 11, 359-368, 2006) using QuickScout Screening Assist™ (Carna Biosciences Inc., commercial kit), and enzyme-linked immunoassay (ELISA).
10 μl of the test substance solution obtained by dissolving or suspending in the assay buffer (15 mM Tris, 0.01% Tween 20, 2 mM DTT, pH 7.5) (4× final concentration), or 10 μl of a solvent (4% dimethyl sulfoxide-assay buffer) was dispensed into a DELFIA Streptavidin-coated clear plate (PerkinElmer Inc., product number 4009-0010). Then, 10 μl of an ATP/substrate/metal solution of QuickScout Screening Assist™ ELISA was added. Additionally, 20 μl of the kinase solution diluted with the assay buffer was added to initiate a reaction. For a blank, only 20 μl of the assay buffer was added. The assay method was in accordance with the protocol of QuickScout Screening Assist™ ELISA. After the reaction, the absorbance at 450 nm in each well was measured using SpectraMax (Molecular Devices, California, U.S.A).

Test [3] deals with Human umbilical vein endothelial cells (HUVECs). Description: Growth inhibitory activity on human umbilical vein endothelial cells stimulated by VEGF. The format is cell-based. Particulars: HUVEC, 72 h, 3 days, Cell Counting Kit-8. The procedure:
Human umbilical vein endothelial cells (HUVECs) were isolated according to the reported method (Shin-seikagaku jikken kouza “saibou baiyou gijutu (Cell culturing techniques)” p. 197-202) and incubated to confluence using an EGM-2 culture medium (obtained from Sanko Junyaku Co., Ltd.) in a 5% CO2 incubator (37° C.). The HUVECs were collected by a trypsin-EDTA treatment and washed with a culture medium (2% fetal bovine serum-supplemented Human endothelial SFM basal medium, obtained from Invitrogen Corp.), followed by suspending them in the medium to count the cell number. By diluting it with the medium, a 2×10^4 cells/ml cell suspension was prepared. The cell suspension was dispensed into a 96-well plate (obtained from FALCON) by 100 μl each, and incubated at 37° C. in a 5% CO2 incubator overnight. After the incubation, 50 μl of the test substance diluted with the medium was added to each well, and 50 μL of 80 ng/ml human recombinant VEGF (obtained from R&D systems, Inc.) diluted with the medium was added and further incubated for 3 days in the 5% CO2 incubator (37° C.). After the incubation, 20 μl of Cell Counting Kit-8 (obtained from DOJINDO Laboratories) was added to each well, which were incubated for about 2 hours in the 5% CO2 incubator (37° C.). After the incubation, the absorbance of the each well was measured using a plate reader MTP-500 (Corona Electric Co., Ltd) with a measurement wavelength of 450 nm and a control wavelength of 660 nm. A ratio of absorbance (%) of each well with the test substance against the wells without the test substance was determined, and based on this ratio, the concentration of the test substance required to inhibit 50% of cell proliferation (IC50) was determined and the results are shown in Table 2.

Test [4] has as its system NIH3T3 cells transformed by mutated RET. The conditions noted are these: cited from earlier work.
The test system is the same in test [5]. The conditions noted are these: after injection of the cells to a nude mouse; cited from earlier work.

T1 sequence (P35968 786-1356 limits assumed): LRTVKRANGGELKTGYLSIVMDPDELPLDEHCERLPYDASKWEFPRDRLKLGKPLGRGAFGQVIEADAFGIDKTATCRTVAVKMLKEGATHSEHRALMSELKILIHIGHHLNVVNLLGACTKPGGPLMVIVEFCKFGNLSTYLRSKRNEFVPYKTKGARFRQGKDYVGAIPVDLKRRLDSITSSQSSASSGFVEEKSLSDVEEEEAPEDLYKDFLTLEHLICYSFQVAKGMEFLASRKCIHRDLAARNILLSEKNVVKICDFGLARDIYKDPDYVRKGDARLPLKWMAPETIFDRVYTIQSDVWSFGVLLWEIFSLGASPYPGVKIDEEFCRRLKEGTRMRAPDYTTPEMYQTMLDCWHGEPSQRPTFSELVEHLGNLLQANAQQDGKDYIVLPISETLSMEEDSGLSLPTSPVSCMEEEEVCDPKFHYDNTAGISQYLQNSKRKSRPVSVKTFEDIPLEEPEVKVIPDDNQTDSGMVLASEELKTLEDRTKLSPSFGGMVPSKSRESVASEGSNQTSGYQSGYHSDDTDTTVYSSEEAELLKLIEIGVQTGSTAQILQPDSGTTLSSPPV
T2 sequence (P10721 26-976): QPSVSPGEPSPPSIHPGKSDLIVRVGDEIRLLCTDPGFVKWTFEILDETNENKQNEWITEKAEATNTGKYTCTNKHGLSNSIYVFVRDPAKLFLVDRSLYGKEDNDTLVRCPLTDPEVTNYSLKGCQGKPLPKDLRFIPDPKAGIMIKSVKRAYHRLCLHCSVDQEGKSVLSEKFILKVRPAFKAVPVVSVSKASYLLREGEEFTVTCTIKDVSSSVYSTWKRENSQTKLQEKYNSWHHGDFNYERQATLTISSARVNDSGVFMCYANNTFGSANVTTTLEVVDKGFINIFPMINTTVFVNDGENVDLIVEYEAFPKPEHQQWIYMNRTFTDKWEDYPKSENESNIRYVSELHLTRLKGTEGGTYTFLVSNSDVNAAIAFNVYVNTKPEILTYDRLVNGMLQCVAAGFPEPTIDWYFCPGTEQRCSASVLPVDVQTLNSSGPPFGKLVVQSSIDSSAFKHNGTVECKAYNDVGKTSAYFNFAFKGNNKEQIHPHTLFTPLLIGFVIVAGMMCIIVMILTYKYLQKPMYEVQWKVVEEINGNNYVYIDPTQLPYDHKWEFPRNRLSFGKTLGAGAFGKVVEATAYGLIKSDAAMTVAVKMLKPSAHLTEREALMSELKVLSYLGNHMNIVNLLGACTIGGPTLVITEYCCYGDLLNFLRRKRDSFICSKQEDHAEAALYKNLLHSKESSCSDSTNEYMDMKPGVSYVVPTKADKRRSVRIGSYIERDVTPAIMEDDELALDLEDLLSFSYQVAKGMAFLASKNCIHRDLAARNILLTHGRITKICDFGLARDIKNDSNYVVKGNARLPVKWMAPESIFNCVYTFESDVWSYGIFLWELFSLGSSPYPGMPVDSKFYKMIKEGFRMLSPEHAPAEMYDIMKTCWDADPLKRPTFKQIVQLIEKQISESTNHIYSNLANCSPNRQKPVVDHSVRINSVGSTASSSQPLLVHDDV

Turning to `CNC(=O)c1cc(Oc2ccc(NC(=O)Nc3ccc(Cl)c(C(F)(F)F)c3)cc2)ccn1` [BAY 43-9006], the tumor size entry in test [1] was “reduced a tumor size”.
As to `CN1CCN(C2CCN(C(=O)Nc3cc(Oc4ccc(NC(=O)C5(C(=O)Nc6ccc(F)cc6)CC5)c(F)c4)ccn3)CC2)CC1` [N-(2-Fluoro-4-{[2-({[4-(4-methylpiperazin-1-yl)piperidin-1-yl]carbonyl}amino)pyridin-4-yl]oxy}phenyl)-N′-(4-fluorophenyl)cyclopropane-1,1-dicarboxamide], the figures for the IC50 (in test [2]; at KIT; in test [3]) were 240 nM, 100 nM and 82 nM, respectively.
Regarding `COc1cc2c(Nc3ccc(Br)cc3F)ncnc2cc1OCC1CCN(C)CC1` [ZD6474], the anchorage-independent growth result in test [4] is “suppressed anchorage-independent growth”. Also, the tumorigenesis entry in test [5] was “inhibited tumorigenesis”.
